# Reference: patent US20090181898A1, “ABUSE-RESISTANT A[…]” (SHIRE LLC, priority 2002, published 2009)
# Legend:
# [1] = Serum and brain tissue levels following oral administration (LC/MS/MS); conditions: rat, 5 mg/kg d-amphetamine base
# rats = assay: Single oral dose toxicity; assay type: in vivo, Sprague Dawley rats; conditions: rat
# Procedure: Three male and three female Sprague Dawley rats per group were given a single oral administration of L-lysine-d-amphetamine at 0.1, 1.0, 10, 60, 100, or 1000 mg/kg (Table 53).
# Animals found dead, or sacrificed moribund were necropsied and discarded.
# [2] = Stability under concentrated conditions (concentrated HCl, 10 N NaOH, elevated temperature)
# [3] = Clinical pharmacokinetics, 25 and 75 mg, compared to Adderall XR and Dexedrine Spansule; conditions: human, in vivo, po; for AUC(0-inf): L-lysine-d-amphetamine intact conjugate AUCinf; for AUC(0-t): L-lysine-d-amphetamine intact conjugate AUClast; for Cmax: L-lysine-d-amphetamine intact conjugate Cmax; for half-life: L-lysine-d-amphetamine intact conjugate T1/2, human; for Tmax: L-lysine-d-amphetamine intact conjugate Tmax; for concentration at 0 h / concentration at 0.5 h / concentration at 1 h / concentration at 2 h / concentration at 3 h / concentration at 4 h / concentration at 5 h / concentration at 6 h / concentration at 7 h / concentration at 8 h / concentration at 10 h / concentration at 12 h / concentration at 16 h / concentration at 24 h / concentration at 48 h / concentration at 72 h: L-lysine-d-amphetamine intact conjugate concentration
# [4] = 10 N NaOH, elevated temperature
# [5] = conc. HCl, about 90° C. for 1 hour, 0.4 mg/mL
# [6] = 25 mg, oral 25 mg L-lysine-d-amphetamine, mean
# [7] = 25 mg, oral 25 mg L-lysine-d-amphetamine, individual subjects
# [8] = 75 mg, oral 75 mg L-lysine-d-amphetamine, mean
# [9] = 75 mg, oral 75 mg L-lysine-d-amphetamine, individual subjects
compound,measurement,setting,value
"CC(Cc1ccccc1)NC(=O)C(N)CCCCN [L-lysine-d-amphetamine, 2,6-diaminohexanoic acid-(1-methyl-2-phenylethyl)-amide]",Intact conjugate in brain tissue,[1],not detected
same,Intact conjugate in serum,[1],present in appreciable amounts
same,Mortality,"rats; oral, 1000 mg/kg",only one death occurred out of a group of six animals
same,Lethal oral dose,rats; single oral administration,above 1000 mg/kg
same,% AUC Lys-Amp (HPLC),[2]; [4],99 % AUC
same,% AUC d-amphetamine (HPLC),[2]; [4],<1 % AUC
same,% AUC Lys-Amp (HPLC),[2]; [5],96 % AUC
same,% AUC d-amphetamine (HPLC),[2]; [5],4 % AUC
same,d-amphetamine released under concentrated conditions,"[2]; concentrated HCl, about 90° C., 1 hour, HPLC",only a minimal amount
same,AUC(0-inf),[3]; [6],13.5 ng·h/mL
same,AUC(0-t),[3]; [6],11.3 ng·h/mL
same,Cmax,[3]; [6],11.6 ng/mL
same,half-life,[3]; [7],0.47 h
same,half-life,[3]; [6],0.419 h
same,Tmax,[3]; [7],1 h
same,Tmax,[3]; [6],1.05 h
same,concentration at 0 h,[3]; [7],0 ng/mL
same,concentration at 0 h,[3]; [6],0 ng/mL
same,concentration at 0.5 h,[3]; [6],5.1 ng/mL
same,concentration at 1 h,[3]; [6],11.2 ng/mL
same,concentration at 2 h,[3]; [6],2.2 ng/mL
same,concentration at 3 h,[3]; [7],0 ng/mL
same,concentration at 3 h,[3]; [6],0 ng/mL
same,concentration at 4 h,[3]; [7],0 ng/mL
same,concentration at 4 h,[3]; [6],0 ng/mL
same,concentration at 5 h,[3]; [7],0 ng/mL
same,concentration at 5 h,[3]; [6],0 ng/mL
same,concentration at 6 h,[3]; [7],0 ng/mL
same,concentration at 6 h,[3]; [6],0 ng/mL
same,concentration at 7 h,[3]; [7],0 ng/mL
same,concentration at 7 h,[3]; [6],0 ng/mL
same,concentration at 8 h,[3]; [7],0 ng/mL
same,concentration at 8 h,[3]; [6],0 ng/mL
same,concentration at 10 h,[3]; [7],0 ng/mL
same,concentration at 10 h,[3]; [6],0 ng/mL
same,concentration at 12 h,[3]; [7],0 ng/mL
same,concentration at 12 h,[3]; [6],0 ng/mL
same,concentration at 16 h,[3]; [7],0 ng/mL
same,concentration at 16 h,[3]; [6],0 ng/mL
same,concentration at 24 h,[3]; [7],0 ng/mL
same,concentration at 24 h,[3]; [6],0 ng/mL
same,concentration at 48 h,[3]; [7],0 ng/mL
same,concentration at 48 h,[3]; [6],0 ng/mL
same,concentration at 72 h,[3]; [7],0 ng/mL
same,concentration at 72 h,[3]; [6],0 ng/mL
same,AUC(0-inf),[3]; [8],59.5 ng·h/mL
same,AUC(0-t),[3]; [8],58.1 ng·h/mL
same,Cmax,[3]; [8],53.6 ng/mL
same,half-life,[3]; [8],0.534 h
same,Tmax,[3]; [9],1 h
same,Tmax,[3]; [8],1.05 h
same,concentration at 0 h,[3]; [9],0 ng/mL
same,concentration at 0 h,[3]; [8],0 ng/mL
same,concentration at 0.5 h,[3]; [8],20.5 ng/mL
same,concentration at 1 h,[3]; [8],53 ng/mL
same,concentration at 2 h,[3]; [8],9.1 ng/mL
same,concentration at 3 h,[3]; [8],2.6 ng/mL
same,concentration at 4 h,[3]; [8],0.8 ng/mL
